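These data come from cells grown in 96-well plates and exposed to compound for 48 hours at five concentrations. At the GI50, growth is halved.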 The source made the active and inactive calls. No stated cut-off is given here; in the data, active = GI50 up to about 1.1 µM and inactive = higher.
Tests used:
Assay in all cases: inhibition of tumour cell growth, NCI panel, 48 h
CCRF-CEM = system: CCRF-CEM
SK-MEL-2 = system: SK-MEL-2
SK-MEL-5 = system: SK-MEL-5
ACHN = system: ACHN
HOP-92 = system: HOP-92
OVCAR-8 = system: OVCAR-8
LOX IMVI = system: LOX IMVI
OVCAR-3 = system: OVCAR-3
RPMI-8226 = system: RPMI-8226
K562 = system: K562
HOP-62 = system: HOP-62
786-0 = system: 786-0
COLO 205 = system: COLO 205
UO-31 = system: UO-31
HL-60 = system: HL-60
DU-145 = system: DU-145
OVCAR-4 = system: OVCAR-4
MDA-N = system: MDA-N
PC-3 = system: PC-3
T47D = system: T47D

Row | Structure (SMILES) | GI50 (CCRF-CEM) | GI50 (SK-MEL-2) | GI50 (SK-MEL-5) | GI50 (ACHN) | GI50 (HOP-92) | GI50 (OVCAR-8) | GI50 (LOX IMVI) | GI50 (OVCAR-3) | GI50 (RPMI-8226) | GI50 (K562) | GI50 (HOP-62) | GI50 (786-0) | GI50 (COLO 205) | GI50 (UO-31) | GI50 (HL-60) | GI50 (DU-145) | GI50 (OVCAR-4) | GI50 (MDA-N) | GI50 (PC-3) | GI50 (T47D)
1 | COc1cc2c(cc1OC)C(C#N)(Cc1ccccc1)N(C(=O)c1ccccc1)C=C2 (stereo not given) | 35.6 µM (inactive) | > 100 µM (inactive) | 26 µM (inactive) | 82.8 µM (inactive) | 58.2 µM (inactive) | 65.8 µM (inactive) | > 100 µM (inactive) | > 100 µM (inactive) | 35.5 µM (inactive) | 44.3 µM (inactive) | 51.5 µM (inactive) | > 100 µM (inactive) | 35.2 µM (inactive) | 36 µM (inactive) | 36.4 µM (inactive) |  |  |  |  | 
2 | CCOC(=O)/C(=C\c1ccc(O)c(OC)c1)C(=O)c1ccccc1 | 7.5 µM (inactive) | 12.5 µM (inactive) | 13.3 µM (inactive) | 15.8 µM (inactive) | 21.3 µM (inactive) | 11.7 µM (inactive) | 7.21 µM (inactive) | 26.9 µM (inactive) | 9.77 µM (inactive) | 9.59 µM (inactive) | > 10 µM (inactive) | 16.7 µM (inactive) | 36.1 µM (inactive) | 23 µM (inactive) | 10.4 µM (inactive) | 23.1 µM (inactive) | 13.9 µM (inactive) |  |  | 
3 | CC1(CCOCc2ccccc2)NC(=O)NC1=O (stereo not given) |  | > 100 µM (inactive) | > 100 µM (inactive) | > 100 µM (inactive) | > 100 µM (inactive) | > 100 µM (inactive) | > 100 µM (inactive) | > 100 µM (inactive) |  | > 100 µM (inactive) | > 100 µM (inactive) | > 100 µM (inactive) |  | > 100 µM (inactive) |  | > 100 µM (inactive) | > 100 µM (inactive) | > 100 µM (inactive) | > 100 µM (inactive) | 
4 | CC(C)(C)c1ccc2c(c1)S(=O)(=O)Nc1ccccc1NS(=O)(=O)c1cc(C(C)(C)C)ccc1OCCOCCOCCO2 | > 100 µM (inactive) | > 100 µM (inactive) | 93.8 µM (inactive) | > 100 µM (inactive) | 85.3 µM (inactive) | 70 µM (inactive) | > 100 µM (inactive) | > 100 µM (inactive) |  | > 100 µM (inactive) | > 100 µM (inactive) | > 100 µM (inactive) | > 100 µM (inactive) | > 100 µM (inactive) | > 100 µM (inactive) |  | 20.9 µM (inactive) |  |  | 
5 | CS/C(=N/C(=O)c1ccccc1)SCCS/C(=N\C(=O)c1ccccc1)SC | > 100 µM (inactive) | > 100 µM (inactive) | > 100 µM (inactive) | > 100 µM (inactive) | 20 µM (inactive) | > 100 µM (inactive) | > 100 µM (inactive) | 68.5 µM (inactive) | > 100 µM (inactive) | > 100 µM (inactive) | 62.2 µM (inactive) | > 100 µM (inactive) | > 100 µM (inactive) | > 100 µM (inactive) | > 100 µM (inactive) |  | 25 µM (inactive) |  |  | 
6 | CC(C)c1cccc(C(C)C)c1N1C(=O)C(=O)C(c2nc3ccccc3o2)C(=O)C1=O | 8.95 µM (inactive) | > 100 µM (inactive) | 38.5 µM (inactive) | > 100 µM (inactive) | 33.3 µM (inactive) | > 100 µM (inactive) | > 100 µM (inactive) | 33.7 µM (inactive) | 35.4 µM (inactive) | 28.2 µM (inactive) | > 100 µM (inactive) | 14.4 µM (inactive) | 32.8 µM (inactive) | 94 µM (inactive) | 30.3 µM (inactive) |  | 78.2 µM (inactive) |  |  | 
7 | COc1c(Br)cc(/C=C(\C#N)c2ccccn2)cc1Br | > 100 µM (inactive) | 13.8 µM (inactive) | > 100 µM (inactive) | > 100 µM (inactive) |  | 34.5 µM (inactive) |  | > 100 µM (inactive) | > 100 µM (inactive) | > 100 µM (inactive) | 22.2 µM (inactive) | 4.09 µM (inactive) | > 100 µM (inactive) | > 100 µM (inactive) | > 100 µM (inactive) | 37.8 µM (inactive) |  | > 10 µM (inactive) | > 100 µM (inactive) | 
8 | COc1ccc(C(=O)O/N=C2/CCC/C2=C\c2ccccc2)cc1 | > 100 µM (inactive) | > 100 µM (inactive) | > 100 µM (inactive) | > 94.8 µM (inactive) | > 100 µM (inactive) | > 100 µM (inactive) | > 100 µM (inactive) | > 100 µM (inactive) | > 100 µM (inactive) | > 100 µM (inactive) | > 100 µM (inactive) | > 72.3 µM (inactive) | > 100 µM (inactive) | > 100 µM (inactive) | > 85.9 µM (inactive) |  | > 66.1 µM (inactive) |  |  | 
9 | O=S1(=O)c2ccccc2N(c2ccccc2)c2nnnn21 | 3.86 µM (inactive) | 40.4 µM (inactive) | 34.4 µM (inactive) | 29.4 µM (inactive) | 35 µM (inactive) | 30.1 µM (inactive) | 16.7 µM (inactive) | 18.5 µM (inactive) |  | 29.4 µM (inactive) | 21 µM (inactive) | 17.1 µM (inactive) | 22.5 µM (inactive) | 39.5 µM (inactive) | 11.4 µM (inactive) | 34.5 µM (inactive) | 16.7 µM (inactive) |  | 44.3 µM (inactive) | 31.8 µM (inactive)
10 | CC(=O)O[C@H]1CCC2[C@@H]3CCC4C(=O)c5oncc5C[C@]4(C)C3CC[C@@]21C (stereo not given in full) | > 100 µM (inactive) | > 100 µM (inactive) | > 100 µM (inactive) | 63 µM (inactive) | > 100 µM (inactive) | > 100 µM (inactive) | 28 µM (inactive) | > 100 µM (inactive) | > 100 µM (inactive) | > 100 µM (inactive) | > 100 µM (inactive) | > 100 µM (inactive) | > 100 µM (inactive) | > 10 µM (inactive) | > 100 µM (inactive) |  | 5.21 µM (inactive) |  |  | 
11 | COC1=CC(O)(CC(N)=O)c2ccccc2C1=O (stereo not given) | > 100 µM (inactive) | > 100 µM (inactive) | > 100 µM (inactive) | > 100 µM (inactive) | > 100 µM (inactive) | > 100 µM (inactive) | > 100 µM (inactive) | > 100 µM (inactive) | > 100 µM (inactive) | > 100 µM (inactive) | > 100 µM (inactive) | > 100 µM (inactive) | > 100 µM (inactive) | > 100 µM (inactive) | > 100 µM (inactive) |  | > 100 µM (inactive) |  |  | 
12 | Cc1cc(O)no1 [HYMEXAZOL] |  | > 100 µM (inactive) |  | 18.9 µM (inactive) | > 100 µM (inactive) | > 100 µM (inactive) | > 100 µM (inactive) | > 100 µM (inactive) | > 100 µM (inactive) | > 100 µM (inactive) | > 100 µM (inactive) | > 100 µM (inactive) | > 100 µM (inactive) | > 100 µM (inactive) |  |  | > 100 µM (inactive) |  | > 100 µM (inactive) | 
13 | O=C(CC(Cl)(Cl)C(Cl)(Cl)Cl)c1ccccc1 |  | 10.1 µM (inactive) | 12 µM (inactive) | 2.27 µM (inactive) | 19.9 µM (inactive) | 2.59 µM (inactive) | 1.83 µM (inactive) | 1.85 µM (inactive) | 3.45 µM (inactive) | 2.09 µM (inactive) | 4.21 µM (inactive) | 3.01 µM (inactive) | 3.24 µM (inactive) | 3.94 µM (inactive) | 8.99 µM (inactive) | 3.01 µM (inactive) | 2.22 µM (inactive) |  | 14.4 µM (inactive) | 2.73 µM (inactive)
14 | C=CCNC(=O)ON1C(=O)CCC1=O | > 100 µM (inactive) | > 100 µM (inactive) |  | > 100 µM (inactive) | > 100 µM (inactive) | > 100 µM (inactive) | > 100 µM (inactive) | > 100 µM (inactive) | > 100 µM (inactive) | > 100 µM (inactive) | > 100 µM (inactive) | > 100 µM (inactive) | > 100 µM (inactive) | > 100 µM (inactive) | > 100 µM (inactive) |  | > 100 µM (inactive) |  |  | 
15 | N/C(=N\O)N/N=C\c1c2ccccc2c(Cl)c2ccccc12 | 5.77 µM (inactive) | 10.5 µM (inactive) | 5 µM (inactive) | 4.33 µM (inactive) | 3.16 µM (inactive) | 4.08 µM (inactive) | 2.55 µM (inactive) | 3.47 µM (inactive) | 3.3 µM (inactive) | 3.72 µM (inactive) | 10.5 µM (inactive) | 12.6 µM (inactive) | 3.67 µM (inactive) | 10.7 µM (inactive) | 2.19 µM (inactive) |  | 3.78 µM (inactive) |  |  | 
16 | O=C(NCc1ccncc1)C1COc2cc(-c3cc(=O)c4ccccc4o3)ccc2O1 (stereo not given) | > 100 µM (inactive) | > 100 µM (inactive) | > 100 µM (inactive) | > 100 µM (inactive) | > 100 µM (inactive) | > 100 µM (inactive) | > 100 µM (inactive) | > 100 µM (inactive) |  | > 100 µM (inactive) | > 100 µM (inactive) | > 100 µM (inactive) |  | > 100 µM (inactive) | > 100 µM (inactive) |  | > 100 µM (inactive) |  |  | 
17 | C[C@@]12c3c4ccc(C=O)c3Oc3ccc(C=O)c(c31)Oc1c(C=O)ccc(c12)O4 |  | > 100 µM (inactive) | > 100 µM (inactive) | > 100 µM (inactive) | 0.565 µM (active) | > 100 µM (inactive) | > 100 µM (inactive) | > 100 µM (inactive) | > 100 µM (inactive) | > 100 µM (inactive) | > 100 µM (inactive) | > 100 µM (inactive) | > 100 µM (inactive) | > 100 µM (inactive) |  |  | > 100 µM (inactive) | > 100 µM (inactive) | > 100 µM (inactive) | > 100 µM (inactive)

— ChEMBL document CHEMBL1201862, “PubChem BioAssay data set” (2004)
